# Where two headings read alike, the source gives them in different places.
# Legend:
# [1] = tested on: HeLa cells; assay: colony inhibition test against HeLa cells (treatment for 24 hrs); type: cell-based; conditions: Homo sapiens
# [2] = tested on: P388 leukemia; assay: antitumor activity against P388 ascitic leukemia in CDF-1 mice, treatment ip on day 1; type: in vivo; conditions: for T/C % (median survival time: % over untreated controls) / Toxic deaths: ip on day 1; for Toxic deaths: autoptic findings on dead mice; for antitumor activity compared with the parent drugs: P 388 ascitic leukemia, CDF-1 mice, in words
# Protocol: The primary screening "in vivo" was carried out in CDF-1 mice bearing P 388 ascitic leukemia (10^6 cells/mouse).
# Antitumor activity against P388 leukemia, treatment ip on day 1
# ^a Median survival time: % over untreated controls
# ^b Evaluated on the basis of autoptic findings on dead mice.
# [3] = tested on: advanced mammary carcinoma; assay: activity and toxicity against advanced mammary carcinoma in C3H/He mice, iv once a week for four weeks; type: in vivo; conditions: for Toxic deaths: autoptic evaluation; for Tumor growth: evaluated once week after last treatment; for activity at the optimal dose: 6 mg/kg of Doxorubicin, 5.3 mg/kg of IB, in words
# Protocol: (§1) The compound IB has been tested in comparison with Doxorubicin against advanced mammary carcinoma spontaneously arising in C3H/He mice. The compounds were administered iv once a week for four weeks.
# Activity, toxicity and cardiotoxicity of IB against advanced mammary
# (§2) ^1 Experiment was performed in C3H/He mice inoculated s.c. with 20
# (§3) × 10^6 mammary carcinoma cells.
# (§4) ^2 Treatment iv started when tumor was palpable (once week for four
# ^3 Evaluated once week after last treatment.
# ^5 Evaluated on the basis of autoptic
# [4] = tested on: miocardial tissue (atrium, ventricle); assay: cardiotoxicity in C3H/He mice bearing mammary carcinoma, semithin sections of miocardial tissue (light microscopy); type: in vivo; conditions: for animals with cardiac lesions (atrial and ventricular level) / severity of the cardiac lesions: mouse, in vivo
# Protocol: as §1, §2, §3, §4
# ^6 Evaluated on semithin section of miocardial tissue (by light
# [5] = 6 mg/kg iv once a week for four weeks
# [6] = 7.5 mg/kg iv once a week for four weeks
# [7] = 2.7 mg/kg iv once a week for four weeks
# [8] = 3.8 mg/kg iv once a week for four weeks
# [9] = 5.3 mg/kg iv once a week for four weeks
compound,measurement,setting,value
COc1cccc2c1C(=O)c1c(O)c3c(c(O)c1C2=O)C[C@@](O)(C(C)=O)C[C@@H]3O[C@H]1C[C@H](N)[C@H](O)[C@H](C)O1 [Daunorubicin],IC50,"[1]; HeLa, 24 h, read-out: ID50",9 ng/mL
same,T/C % (median survival time: % over untreated controls),[2]; dose 2.9 (ng/kg [sic]),170%
same,Toxic deaths,[2]; dose 2.9 (ng/kg [sic]),0/10
same,T/C % (median survival time: % over untreated controls),[2]; dose 4.4 (ng/kg [sic]),170%
same,Toxic deaths,[2]; dose 4.4 (ng/kg [sic]),0/10
same,T/C % (median survival time: % over untreated controls),[2]; dose 6.6 (ng/kg [sic]),170%
same,Toxic deaths,[2]; dose 6.6 (ng/kg [sic]),3/10
COc1cccc2c1C(=O)c1c(O)c3c(c(O)c1C2=O)C[C@@](O)(C(=O)CO)C[C@@H]3O[C@H]1C[C@H](N)[C@H](O)[C@H](C)O1 [Doxorubicin],T/C % (median survival time: % over untreated controls),[2]; dose 10.0 (ng/kg [sic]),225%
same,Toxic deaths,[2]; dose 10.0 (ng/kg [sic]),0/10
same,T/C %,[3]; [5],138%
same,Toxic deaths,[3]; [5],0/5
same,Tumor growth,[3]; [5],65
same,activity at the optimal dose,[3],the same for both compounds
same,T/C %,[3]; [6],125%
same,Toxic deaths,[3]; [6],5/5
same,Tumor growth,[3]; [6],84
same,"Cardiotoxicity, Atrium, affected mice (%)",[4]; [5],100%
same,"Cardiotoxicity, Atrium, grade",[4]; [5],1.6
same,"Cardiotoxicity, Ventricle, affected mice (%)",[4]; [5],100%
same,"Cardiotoxicity, Ventricle, grade",[4]; [5],1.2
same,"Cardiotoxicity, Atrium, affected mice (%)",[4]; [6],100%
same,"Cardiotoxicity, Atrium, grade",[4]; [6],3.2
same,"Cardiotoxicity, Ventricle, affected mice (%)",[4]; [6],100%
same,"Cardiotoxicity, Ventricle, grade",[4]; [6],3.6
same,animals with cardiac lesions (atrial and ventricular level),[4],all the animals
same,severity of the cardiac lesions,[4],high
"COc1cccc2c1C(=O)c1c(O)c3c(c(O)c1C2=O)CC(O)(C(C)=O)CC3OC1CC(O)C(N)C(C)O1 (centres unmarked) [IA, 3'-deamino-3'-hydroxy-4'-deoxy-4'-aminodaunorubicin]",IC50,"[1]; HeLa cells, treatment for 24 hrs, read-out: ID50 (the source's name)",7 ng/mL
same,antitumor activity compared with the parent drugs,[2],more active than the parent drugs
same,T/C % (median survival time: % over untreated controls),[2]; dose 10.0 (ng/kg [sic]),165%
same,Toxic deaths,[2]; dose 10.0 (ng/kg [sic]),0/10
same,T/C % (median survival time: % over untreated controls),[2]; dose 15.0 (ng/kg [sic]),180%
same,Toxic deaths,[2]; dose 15.0 (ng/kg [sic]),0/10
same,T/C % (median survival time: % over untreated controls),[2]; dose 22.5 (ng/kg [sic]),200%
same,Toxic deaths,[2]; dose 22.5 (ng/kg [sic]),0/10
"COc1cccc2c1C(=O)c1c(O)c3c(c(O)c1C2=O)CC(O)(C(=O)CO)CC3OC1CC(O)C(N)C(C)O1 (centres unmarked) [IB, 3'-deamino-3'-hydroxy-4'-deoxy-4'-aminodoxorubicin]",antitumor activity compared with the parent drugs,[2],more active than the parent drugs
same,T/C % (median survival time: % over untreated controls),[2]; dose 4.4 (ng/kg [sic]),220%
same,Toxic deaths,[2]; dose 4.4 (ng/kg [sic]),0/10
same,T/C % (median survival time: % over untreated controls),[2]; dose 6.6 (ng/kg [sic]),230%
same,Toxic deaths,[2]; dose 6.6 (ng/kg [sic]),0/10
same,T/C % (median survival time: % over untreated controls),[2]; dose 10.0 (ng/kg [sic]),310%
same,Toxic deaths,[2]; dose 10.0 (ng/kg [sic]),0/10
same,T/C % (median survival time: % over untreated controls),[2]; dose 15.0 (ng/kg [sic]),215%
same,Toxic deaths,[2]; dose 15.0 (ng/kg [sic]),3/10
same,T/C %,[3]; [7],98%
same,Toxic deaths,[3]; [7],0/5
same,Tumor growth,[3]; [7],32
same,T/C %,[3]; [8],129%
same,Toxic deaths,[3]; [8],0/5
same,Tumor growth,[3]; [8],34
same,T/C %,[3]; [9],148%
same,Toxic deaths,[3]; [9],1/5
same,Tumor growth,[3]; [9],59
same,activity at the optimal dose,[3],the same for both compounds
same,"Cardiotoxicity, Atrium, affected mice (%)",[4]; [7],25%
same,"Cardiotoxicity, Atrium, grade",[4]; [7],0.1
same,"Cardiotoxicity, Ventricle, affected mice (%)",[4]; [7],0%
same,"Cardiotoxicity, Ventricle, grade",[4]; [7],0
same,"Cardiotoxicity, Atrium, affected mice (%)",[4]; [8],20%
same,"Cardiotoxicity, Atrium, grade",[4]; [8],0.1
same,"Cardiotoxicity, Ventricle, affected mice (%)",[4]; [8],60%
same,"Cardiotoxicity, Ventricle, grade",[4]; [8],0.3
same,"Cardiotoxicity, Atrium, affected mice (%)",[4]; [9],40%
same,"Cardiotoxicity, Atrium, grade",[4]; [9],0.2
same,"Cardiotoxicity, Ventricle, affected mice (%)",[4]; [9],80%
same,"Cardiotoxicity, Ventricle, grade",[4]; [9],0.4
same,cardiotoxicity in comparison with Doxorubicin,[4]; in words,drastically reduced in comparison with Doxorubicin
same,animals with cardiac lesions (atrial and ventricular level),[4],lower percent of affected mice
same,severity of the cardiac lesions,[4],lower severity

# From patent publication US4684629A, “3'-deamino-3'-hydroxy-4'-deoxy-4'-amino doxorubicin and related daunorubicin” (priority 1985, dated 1987)
